pEC50: −log10 of the molar value. Converted amounts (≈) assume the structure as drawn. Where two headings read alike, the source gives them in different places. A value given as a limit tells only on which side of the number the result lay.

A short description of series [1]: Lyophilisation solubility assay (Lysa). The format is physicochemical. The note with it: thermodynamic from solid. As for the experimental part:
The aqueous solubility is an important physico-chemical property that plays a significant role in various physical and biological processes. It is desirable to have good solubility which enables good permeability and gastric and intestinal absorption, linear dose proportionality, less PK variability, and easy formulation for PD/PK studies. […] Lyophilisation solubility assay (Lysa) is a well adopted high throughput assay to measure compound solubility in industry.
Samples are prepared in duplicate from 10 mM DMSO stock solutions. After evaporation of DMSO with a centrifugal vacuum evaporator, the residue is solved in 0.05 M phosphate buffer (pH 6.5), stirred for one hour and then shook for two hours. After one night, the solution is filtered using a microtiter filter plate and then the filtrate and its 1/10 dilution are then analyzed by direct UV measurement or by HPLC-UV. In addition a four-point calibration curve is prepared from the 10 mM stock solutions and used for the solubility determination of the compounds. The results are in μg/ml. In case the percentage of sample measured in solution after evaporation divided by the calculated maximum of sample amount is bigger than 80% the solubility is reported as bigger than this value.

For series [2], the system named is HBV replication in HepG2.2.15 cells. Description: Anti-HBV activity in vitro in HepG2.2.15 cells (extracellular HBV DNA by qPCR). In kind it is cell-based. An excerpt: HepG2.2.15 and HepDE19 are stably-transfected cell lines containing the HBV genome. Both cell lines are derived from the hepatoblastoma cell line Hep G2 (American Type Culture Collection, ATCC® HB-8065™) by the published procedures described in references: M A Selles et al. Proc. Natl. Acad. Sci. USA 1987, 84, 1005-1009 and H Guo et al. Journal of Virology 2007, 81, 12472-12484, respectively. Both cell lines were maintained in Dulbecco's modified Eagle's medium (DMEM)-F12 medium supplemented with 10% fetal bovine serum, 100 U/mL penicillin, 100 μg/mL streptomycin, and 0.5 mg/mL of G418.
While HepG2.2.15 cells constitutively support HBV replication and production of virus particles, HepDE19 cells are inducible by tetracycline. Addition of 1 μg/mL tetracycline in culture medium suppresses HBV replication in HepDE19 cells, whereas switching to tetracycline-free medium resumes this process.
HepG2.2.15 cells were seeded into 96-well plates (3×10^4 cells in 100 μL media per well) and incubated overnight at 37° C. The test compounds were serially half-log diluted in DMSO, then diluted 100 times in culture media. 100 μL diluted compounds were added into the plates to reach 0.5% final concentration of DMSO in every well. Five days after compound treatment, culture supernatant was collected for further analysis.
For quantitative PCR detection of extracellular HBV DNA, 100 μL culture supernatant was collected and processed in MagNA Pure 96 Nucleic Acid Purification System (Roche Applied Science) for viral DNA extraction. The extracted samples were subjected to HBV DNA quantification by qPCR. The effective compound concentration at which HBV replication is inhibited by 50% (EC50) was determined.
The Examples were tested in the above assays as described herein and found to have EC50<1 μM in HepG2.2.15 assay.

The nature of series [3]: Human microsomal clearance assay. In kind it is in vitro ADME. As for the experimental part:
Microsomes were preincubated with test compound for 10 minutes at 37° C. in 100 mM phosphate buffer with pH 7.4. The reactions were initiated by adding NADPH regenerating system to give a final incubation volume of 400 μL. The incubations finally contained 1 μM test compound, 0.5 mg/mL liver microsomal protein, 3.0 mM glucose 6-phosphate, 1.0 mM NADP, 3.0 mM MgCl2 and 0.05 mg/mL glucose 6-phosphate dehydrogenase in 100 mM phosphate buffer with pH 7.4. After incubation times of 0, 3, 6, 9, 15 and 30 minutes, 50 μL, incubation was transferred to the quench solution containing the internal standard which was 2 μM tolbutamide. After precipitation and centrifugation, test compound concentrations in the samples were determined by LC-MS/MS. Controls of no NADPH regenerating system at zero and 30 minutes were also prepared and analyzed.

Setting [4] is: Hepatitis B virus, HepG2.2.15, Anti-HBV activity in HepG2.2.15 cells, read-out: EC50.

Turning to `COC(=O)C1=C(CN2C3CSCC2CC(CC(=O)O)C3)NC(c2nccs2)=N[C@H]1c1ccc(F)cc1Cl` (stereo partly drawn) [Example 42, 6-(7-Carboxymethyl-3-thia-9-aza-bicyclo[3.3.1]non-9-ylmethyl)-4-(2-chloro-4-fluoro-phenyl)-2-thiazol-2-yl-1,4-dihydro-pyrimidine-5-carboxylic acid methyl ester], the solubility thermodynamic in series [1] (pH 6.5, aqueous buffer) amounted to 188 µg/mL (≈ 333 µM). Also, in series [2] (setting [4]), the pEC50 was 7.26.

Consider `COC(=O)C1=C(CN2CC3CC2CN3C(C)=O)NC(c2nccs2)=N[C@H]1c1ccc(F)cc1Cl` (stereo partly drawn) [Example 41, (R)-6-(5-Acetyl-2,5-diaza-bicyclo[2.2.1]hept-2-ylmethyl)-4-(2-chloro-4-fluoro-phenyl)-2-thiazol-2-yl-1,4-dihydro-pyrimidine-5-carboxylic acid methyl ester], for which the solubility thermodynamic in series [1] (aqueous buffer, 0.05 M phosphate buffer (pH 6.5), reported as bigger than the value if more than 80% of the sample is in solution, read-out: Lysa) is above 552 µg/mL. This compound gave a negative logarithm of the EC50 (pEC50) in series [2] (Hepatitis B virus, HepG2.2.15) of 6.88.

For the compound `COC(=O)C1=C(CN2C3CNC(=O)CC2COC3)NC(c2nccs2)=N[C@H]1c1ccc(F)cc1Cl` (stereo partly drawn) [Example 34, (R)-4-(2-Chloro-4-fluoro-phenyl)-6-(4-oxo-8-oxa-3,10-diaza-bicyclo[4.3.1]dec-10-ylmethyl)-2-thiazol-2-yl-1,4-dihydro-pyrimidine-5-carboxylic acid methyl ester], the solubility thermodynamic in series [1] (pH 6.5, aqueous buffer) came to 263 µg/mL (≈ 506 µM). Also, the pEC50 in series [2] (setting [4]) was 7.38.

For the compound “2-[(1R,5R,7S)-9-[[(4S)-4-(3,4-difluoro-2-methyl-phenyl)-5-methoxycarbonyl-2-thiazol-2-yl-1,4-dihydropyrimidin-6-yl]methyl]-6,6-difluoro-3-oxa-9-azabicyclo[3.3.1]nonan-7-yl]acetic acid or 2-[(1S,5S,7R)-9-[[(4S)-4-(3,4-difluoro-2-methyl-phenyl)-5-methoxycarbonyl-2-thiazol-2-yl-1,4-dihydropyrimidin-6-yl]methyl]-6,6-difluoro-3-oxa-9-azabicyclo[3.3.1]nonan-7-yl]acetic acid [Example 132]”, in series [2] (Anti-HBV activity in HepG2.2.15 cells, read-out: EC50), the pEC50 was 7.99. In series [3] (human microsomal clearance), the CLh was found to be 2.6 mL/min/kg.

With `COC(=O)C1=C(CN2C3CCC2CN(C(C)=O)C3)NC(c2nccs2)=N[C@H]1c1ccc(F)cc1Cl` [Example 122, Methyl (4R)-6-[(3-acetyl-3,8-diazabicyclo[3.2.1]octan-8-yl)methyl]-4-(2-chloro-4-fluoro-phenyl)-2-thiazol-2-yl-1,4-dihydropyrimidine-5-carboxylate], the pEC50 in series [2] (setting [4]) is 7.11. Further, the CLh in series [3] (human, 1 μM, pH 7.4) is 7.0 mL/min/kg.

Regarding `COC(=O)C1=C(CN2C3COCC2CN(C(=O)CO)C3)NC(c2nccs2)=N[C@H]1c1ccc(F)cc1Cl` [Example 21, (R)-4-(2-Chloro-4-fluoro-phenyl)-6-[7-(2-hydroxy-acetyl)-3-oxa-7,9-diaza-bicyclo[3.3.1]non-9-ylmethyl]-2-thiazol-2-yl-1,4-dihydro-pyrimidine-5-carboxylic acid methyl ester], the pEC50 in series [2] (setting [4]) was 7.70. The CLh in series [3] (human, 1 μM, pH 7.4) was determined as 4.3 mL/min/kg.

As for `COC(=O)C1=C(CN2C3COCC2CN(C(C)C)C3)NC(c2nccs2)=N[C@H]1c1ccc(F)cc1Cl` [Example 13, (R)-4-(2-Chloro-4-fluoro-phenyl)-6-(7-isopropyl-3-oxa-7,9-diaza-bicyclo[3.3.1]non-9-ylmethyl)-2-thiazol-2-yl-1,4-dihydro-pyrimidine-5-carboxylic acid methyl ester], the solubility thermodynamic in series [1] (pH 6.5, aqueous buffer) worked out at 313 µg/mL (≈ 586 µM). Further, the pEC50 in series [2] (setting [4]) was 6.57.

For the compound `COC(=O)C1=C(CN2[C@H]3C[C@@H](CC(=O)O)C[C@@H]2C(F)(F)C3)NC(c2nccs2)=N[C@H]1c1cccc(F)c1Cl` [Example 89, 2-[(1S,3R,5R)-8-[[(4R)-4-(2-chloro-3-fluoro-phenyl)-5-methoxycarbonyl-2-thiazol-2-yl-1,4-dihydropyrimidin-6-yl]methyl]-6,6-difluoro-8-azabicyclo[3.2.1]octan-3-yl]acetic acid], the pEC50 in series [2] (setting [4]) is 7.52. For the same compound, the CLh in series [3] (human, 1 μM, pH 7.4) was 0 mL/min/kg.

As for `COC(=O)C1=C(CN2C3COCC2CN(C(N)=O)C3)NC(c2nccs2)=N[C@H]1c1ccc(F)cc1Cl` [Example 18, (R)-6-(7-Carbamoyl-3-oxa-7,9-diaza-bicyclo[3.3.1]non-9-ylmethyl)-4-(2-chloro-4-fluoro-phenyl)-2-thiazol-2-yl-1,4-dihydro-pyrimidine-5-carboxylic acid methyl ester], the pEC50 in series [2] (setting [4]) is 7.70. This compound returned a CLh in series [3] (human, 1 μM, pH 7.4) of 1.3 mL/min/kg.

As to `CCOC(=O)C1=C(CN2[C@@H]3C[C@H](CC(=O)O)C[C@H]2C(F)(F)C3)NC(c2nccs2)=N[C@H]1c1cccc(F)c1Cl` [Example 98, 2-[(1R,3S,5S)-8-[[(4R)-4-(2-chloro-3-fluoro-phenyl)-5-ethoxycarbonyl-2-thiazol-2-yl-1,4-dihydropyrimidin-6-yl]methyl]-6,6-difluoro-8-azabicyclo[3.2.1]octan-3-yl]acetic acid], the negative-log EC50 (pEC50) in series [2] (setting [4]) is 9.15. This compound showed a CLh in series [3] (human, 1 μM, pH 7.4) of 4.5 mL/min/kg.

Take `COC(=O)C1=C(CN2[C@H]3C[C@@H](CC(=O)O)C[C@@H]2C(F)(F)C3)NC(c2nccs2)=N[C@H]1c1cccc(F)c1Br` [Example 95, 2-[(1S,3R,5R)-8-[[(4R)-4-(2-bromo-3-fluoro-phenyl)-5-methoxycarbonyl-2-thiazol-2-yl-1,4-dihydropyrimidin-6-yl]methyl]-6,6-difluoro-8-azabicyclo[3.2.1]octan-3-yl]acetic acid]: the pEC50 in series [2] (setting [4]) was 7.51. This compound also had a CLh in series [3] (human, 1 μM, pH 7.4) of 0 mL/min/kg.

As to `COC(=O)C1=C(CN2[C@H]3C[C@@H](CC(=O)O)C[C@@H]2C(F)(F)C3)NC(c2nccs2)=N[C@H]1c1ccccc1Cl` [Example 91, 2-[(1S,3R,5R)-8-[[(4R)-4-(2-chlorophenyl)-5-methoxycarbonyl-2-thiazol-2-yl-1,4-dihydropyrimidin-6-yl]methyl]-6,6-difluoro-8-azabicyclo[3.2.1]octan-3-yl]acetic acid], the pEC50 in series [2] (setting [4]) was 7.04. Also, the CLh in series [3] (human, 1 μM, pH 7.4) turned out to be 5.1 mL/min/kg.

The compound `COC(=O)C1=C(CN2C3COCC2CN(C(C)=O)C3)NC(c2nccs2)=N[C@H]1c1ccc(F)cc1Cl` [Example 15, (R)-6-(7-Acetyl-3-oxa-7,9-diaza-bicyclo[3.3.1]non-9-ylmethyl)-4-(2-chloro-4-fluoro-phenyl)-2-thiazol-2-yl-1,4-dihydro-pyrimidine-5-carboxylic acid methyl ester] registered a solubility thermodynamic in series [1] (pH 6.5, aqueous buffer) of 233 µg/mL (≈ 436 µM). Moreover, in series [2] (setting [4]), the pEC50 is 7.37.

For `COC(=O)C1=C(CN2[C@@H]3C[C@H](CC(=O)O)C[C@H]2C(F)(F)C3)NC(c2nccs2)=N[C@H]1c1cccc(F)c1Br` [Example 94, 2-[(1R,3S,5S)-8-[[(4R)-4-(2-bromo-3-fluoro-phenyl)-5-methoxycarbonyl-2-thiazol-2-yl-1,4-dihydropyrimidin-6-yl]methyl]-6,6-difluoro-8-azabicyclo[3.2.1]octan-3-yl]acetic acid], the negative logarithm of the EC50 (pEC50) in series [2] (setting [4]) was 7.66. In series [3] (human, 1 μM, pH 7.4), this compound had a CLh of 0 mL/min/kg.

Turning to `COC(=O)C1=C(CN2[C@H]3C[C@@H](CC(=O)O)C[C@@H]2C(F)(F)C3)NC(c2nccs2)=N[C@H]1c1ccc(F)cc1Cl` [Example 87, 2-[(1S,3R,5R)-8-[[(4R)-4-(2-chloro-4-fluoro-phenyl)-5-methoxycarbonyl-2-thiazol-2-yl-1,4-dihydropyrimidin-6-yl]methyl]-6,6-difluoro-8-azabicyclo[3.2.1]octan-3-yl]acetic acid], the pEC50 in series [2] (setting [4]) was 7.40. The compound further showed a CLh in series [3] (human, 1 μM, pH 7.4) of 0 mL/min/kg.

A word on the pEC50: it is the EC50 on a negative log10 scale, so that one unit is a factor of ten.

Source of the values: patent US9266904B2, “6-bridged heteroaryldihydropyrimidines for the treatment and prophylaxis of hepatitis B virus infection” (priority 2013, dated 2016).
